# Tested on: revascularization, unstable angina requiring hospitalization, MI, all causes of death, or stroke
# Test: PROVE IT-TIMI 22: SNP by treatment interaction (high-dose atorvastatin vs standard-dose pravastatin), logistic regression (synergy index), primary composite endpoint
# Type: in vivo, human
# Settings: atorvastatin vs pravastatin; for OR (SNP by treatment interaction, logistic regression): PROVE-IT; for OR: PROVEIT
structure (smiles),measurement,setting,value
"CC(C)c1c(C(=O)Nc2ccccc2)c(-c2ccccc2)c(-c2ccc(F)cc2)n1CC[C@@H](O)C[C@@H](O)CC(=O)O [Atorvastatin, atorvastatin]","OR (SNP by treatment interaction, logistic regression)","rs992695, Imputed, allele C (A1), model DOM, NMISS 442",1.216
same,"OR (SNP by treatment interaction, logistic regression)","rs9866421, Genotyped, allele C (A1), model REC, NMISS 443",0.5895
same,"OR (SNP by treatment interaction, logistic regression)","rs9881685, Imputed, allele A (A1), model ADD, NMISS 440",1.041
same,"OR (SNP by treatment interaction, logistic regression)","rs9881685, Imputed, allele A (A1), model DOM, NMISS 440",1.041
same,"OR (SNP by treatment interaction, logistic regression)","rs9936999, Imputed, allele G (A1), model DOM, NMISS 266",0.7758
same,OR,"marker rs2574, cohort, model rec, End-point CVD",1.62
same,OR,"marker rs7508, caseonly, model dom, End-point CHD",1.65
same,OR,"marker rs198464, cohort, model rec, End-point CHD",1.44
same,OR,"marker rs198476, caseonly, model rec, End-point CHD",1.85
same,OR,"marker rs264122, cohort, model dom, End-point CHD",0.72
same,OR,"marker rs271046, caseonly, model rec, End-point CVD",0.68
same,OR,"marker rs494111, caseonly, model rec, End-point CHD",0.44
same,OR,"marker rs498657, caseonly, model add, End-point CHD",1.57
same,OR,"marker rs619825, caseonly, model rec, End-point CHD",0.40
same,OR,"marker rs646749, caseonly, model rec, End-point CHD",0.40
same,OR,"marker rs694780, caseonly, model rec, End-point CHD",0.40
same,OR,"marker rs892162, caseonly, model rec, End-point CHD",0.64
same,OR,"marker rs974950, cohort, model dom, End-point CVD",0.64
same,OR,"marker rs996022, caseonly, model rec, End-point CHD",0.41
same,OR,"marker rs1003322, caseonly, model dom, End-point CHD",1.41
same,OR,"marker rs1009748, cohort, model add, End-point CVD",1.43
same,OR,"marker rs1136046, caseonly, model add, End-point CVD",1.48
same,OR,"marker rs1190706, cohort, model dom, End-point CVD",0.76
same,OR,"marker rs1266489, cohort, model dom, End-point CVD",0.67
same,OR,"marker rs1336400, cohort, model dom, End-point CHD",1.46
same,OR,"marker rs1344081, caseonly, model dom, End-point CVD",1.31
same,OR,"marker rs1450092, caseonly, model add, End-point CHD",0.81
same,OR,"marker rs1524962, caseonly, model add, End-point CHD",0.80
same,OR,"marker rs1566221, cohort, model add, End-point CHD",0.68
same,OR,"marker rs1727746, cohort, model dom, End-point CVD",1.30
same,OR,"marker rs1798093, cohort, model rec, End-point CHD",2.00
same,OR,"marker rs1942876, caseonly, model rec, End-point CHD",0.41
same,OR,"marker rs2011318, caseonly, model add, End-point CHD",0.63
same,OR,"marker rs2060022, caseonly, model rec, End-point CVD",0.72
same,OR,"marker rs2108425, cohort, model dom, End-point CHD",0.77
same,OR,"marker rs2110564, cohort, model dom, End-point CVD",0.60
same,OR,"marker rs2113334, caseonly, model rec, End-point CVD",0.29
same,OR,"marker rs2327412, cohort, model add, End-point CVD",1.38
same,OR,"marker rs2505039, cohort, model add, End-point CHD",0.84
same,OR,"marker rs2588350, cohort, model add, End-point CVD",0.82
same,OR,"marker rs2648694, cohort, model rec, End-point CVD",1.72
same,OR,"marker rs2655222, caseonly, model rec, End-point CHD",0.23
same,OR,"marker rs2657940, caseonly, model add, End-point CHD",1.20
same,OR,"marker rs2993156, caseonly, model dom, End-point CVD",0.75
same,OR,"marker rs3763978, cohort, model add, End-point CVD",0.84
same,OR,"marker rs4038018, caseonly, model dom, End-point CHD",0.76
same,OR,"marker rs4240808, caseonly, model rec, End-point CVD",0.56
same,OR,"marker rs4242281, caseonly, model rec, End-point CVD",2.08
same,OR,"marker rs4420312, caseonly, model dom, End-point CHD",0.59
same,OR,"marker rs4472926, caseonly, model dom, End-point CHD",0.53
same,OR,"marker rs4660234, cohort, model dom, End-point CHD",1.45
same,OR,"marker rs4787415, caseonly, model rec, End-point CHD",0.62
same,OR,"marker rs4807536, caseonly, model dom, End-point CVD",1.53
same,OR,"marker rs4836745, caseonly, model dom, End-point CVD",0.65
same,OR,"marker rs4870109, caseonly, model rec, End-point CVD",1.97
same,OR,"marker rs6427807, cohort, model dom, End-point CVD",0.66
same,OR,"marker rs6539231, caseonly, model dom, End-point CVD",0.68
same,OR,"marker rs6563805, caseonly, model add, End-point CHD",0.53
same,OR,"marker rs6585412, cohort, model dom, End-point CVD",1.39
same,OR,"marker rs6685920, cohort, model dom, End-point CVD",1.45
same,OR,"marker rs6998016, caseonly, model rec, End-point CHD",6.19
same,OR,"marker rs7018577, caseonly, model dom, End-point CHD",1.44
same,OR,"marker rs7070244, caseonly, model add, End-point CVD",1.30
same,OR,"marker rs7078016, cohort, model dom, End-point CVD",1.41
same,OR,"marker rs7222186, caseonly, model dom, End-point CHD",0.50
same,OR,"marker rs7276749, cohort, model dom, End-point CVD",0.45
same,OR,"marker rs7332076, caseonly, model rec, End-point CVD",2.40
same,OR,"marker rs7338174, caseonly, model dom, End-point CHD",2.50
same,OR,"marker rs7449527, caseonly, model dom, End-point CHD",1.53
same,OR,"marker rs7710039, caseonly, model dom, End-point CVD",0.70
same,OR,"marker rs7839562, caseonly, model dom, End-point CHD",1.54
same,OR,"marker rs7916629, caseonly, model rec, End-point CVD",2.11
same,OR,"marker rs7918692, caseonly, model dom, End-point CVD",1.48
same,OR,"marker rs7959965, caseonly, model add, End-point CVD",0.74
same,OR,"marker rs8129810, cohort, model dom, End-point CVD",0.45
same,OR,"marker rs9478241, caseonly, model rec, End-point CVD",2.08
same,OR,"marker rs9914580, caseonly, model dom, End-point CHD",0.51
same,OR,"marker rs10012485, cohort, model dom, End-point CVD",0.54
same,OR,"marker rs10497883, caseonly, model add, End-point CHD",0.68
same,OR,"marker rs10518335, caseonly, model dom, End-point CVD",0.55
same,OR,"marker rs10774580, caseonly, model dom, End-point CHD",0.63
same,OR,"marker rs10945874, cohort, model add, End-point CVD",1.72
same,OR,"marker rs11138314, cohort, model add, End-point CHD",0.64
same,OR,"marker rs11585647, caseonly, model dom, End-point CVD",0.49
same,OR,"marker rs11721179, caseonly, model dom, End-point CVD",0.64
same,OR,"marker rs11734256, cohort, model rec, End-point CVD",0.57
same,OR,"marker rs12048902, caseonly, model add, End-point CVD",0.72
same,OR,"marker rs12341095, cohort, model rec, End-point CHD",1.63
same,OR,"marker rs12646525, cohort, model dom, End-point CVD",0.59
same,OR,"marker rs12679254, caseonly, model dom, End-point CVD",0.79
same,OR,"marker rs12817873, cohort, model add, End-point CVD",0.85
same,OR,"marker rs13107334, cohort, model dom, End-point CVD",0.53
same,OR,"marker rs13126170, caseonly, model dom, End-point CVD",0.53
